Assay results from ChEMBL document CHEMBL1201862, “PubChem BioAssay data set” (2004).
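Compound exposure: 48 hours, 5 concentrations, 96-well plates. The concentration for 50% growth inhibition is given as GI50.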 Active and inactive are the calls of the source. Rule as the data show it: active = GI50 up to about 1.1 µM and inactive = higher.

Tests used:
Assay in all cases: inhibition of tumour cell growth, NCI panel, 48 h
NCI/ADR-RES = system: NCI/ADR-RES
HOP-92 = system: HOP-92
CAKI-1 = system: CAKI-1
IGROV-1 = system: IGROV-1
T47D = system: T47D
RXF 393 = system: RXF 393
SK-MEL-28 = system: SK-MEL-28
SK-MEL-5 = system: SK-MEL-5
SN12C = system: SN12C
UACC-62 = system: UACC-62
SK-MEL-2 = system: SK-MEL-2
MCF7 = system: MCF7
RPMI-8226 = system: RPMI-8226
SF-268 = system: SF-268
CCRF-CEM = system: CCRF-CEM
SF-295 = system: SF-295
OVCAR-4 = system: OVCAR-4
OVCAR-3 = system: OVCAR-3
MDA-MB-435 = system: MDA-MB-435
SR = system: SR

Compound | GI50 (NCI/ADR-RES) | GI50 (HOP-92) | GI50 (CAKI-1) | GI50 (IGROV-1) | GI50 (T47D) | GI50 (RXF 393) | GI50 (SK-MEL-28) | GI50 (SK-MEL-5) | GI50 (SN12C) | GI50 (UACC-62) | GI50 (SK-MEL-2) | GI50 (MCF7) | GI50 (RPMI-8226) | GI50 (SF-268) | GI50 (CCRF-CEM) | GI50 (SF-295) | GI50 (OVCAR-4) | GI50 (OVCAR-3) | GI50 (MDA-MB-435) | GI50 (SR)
O=C(Cn1c(-c2ccccc2)cc2ccccc21)N1CCOCC1 | > 100 µM (inactive) | > 100 µM (inactive) | > 100 µM (inactive) | > 100 µM (inactive) | > 100 µM (inactive) | > 100 µM (inactive) | > 100 µM (inactive) | > 100 µM (inactive) | > 100 µM (inactive) | > 100 µM (inactive) | > 100 µM (inactive) | > 100 µM (inactive) | > 100 µM (inactive) | 34.4 µM (inactive) | > 100 µM (inactive) | > 100 µM (inactive) | > 100 µM (inactive) | > 100 µM (inactive) | > 100 µM (inactive) | 
COc1cc(/C=N/c2ccc(Oc3ccc(Cl)cc3)c(Cl)c2)cc(OC)c1OC | 22.9 µM (inactive) | 19.1 µM (inactive) | 22.9 µM (inactive) | 21.8 µM (inactive) | 3.53 µM (inactive) |  | 21.3 µM (inactive) | 17.7 µM (inactive) | 20.9 µM (inactive) | 15.3 µM (inactive) | 17.8 µM (inactive) | 29.6 µM (inactive) | 18.9 µM (inactive) | 12.4 µM (inactive) | 12.4 µM (inactive) | 18.2 µM (inactive) | 19.4 µM (inactive) | 20 µM (inactive) | 28.2 µM (inactive) | 26.9 µM (inactive)
CC1(C)N=C(/C=N/O)C(C)(C)N1O | > 100 µM (inactive) | > 100 µM (inactive) |  | > 100 µM (inactive) | > 100 µM (inactive) | > 100 µM (inactive) | > 100 µM (inactive) | > 100 µM (inactive) | > 100 µM (inactive) | > 100 µM (inactive) | > 100 µM (inactive) | > 100 µM (inactive) | > 100 µM (inactive) | > 100 µM (inactive) | > 100 µM (inactive) | > 100 µM (inactive) | > 100 µM (inactive) | > 100 µM (inactive) | > 100 µM (inactive) | > 100 µM (inactive)
CC1(C)CC(=O)c2c(nc3ccc4ccccc4c3c2-c2ccc(NC(=O)CCCCCCCCC(=O)Nc3ccc(-c4c5c(nc6ccc7ccccc7c46)CC(C)(C)CC5=O)cc3)cc2)C1 | > 100 µM (inactive) | > 100 µM (inactive) | > 100 µM (inactive) | > 100 µM (inactive) | > 100 µM (inactive) |  | > 100 µM (inactive) | > 100 µM (inactive) | > 100 µM (inactive) | > 100 µM (inactive) | > 100 µM (inactive) | > 100 µM (inactive) | > 100 µM (inactive) | > 100 µM (inactive) | > 100 µM (inactive) | > 100 µM (inactive) |  | > 100 µM (inactive) | > 100 µM (inactive) | > 100 µM (inactive)
O=C1c2cc([N+](=O)[O-])cc3cc([N+](=O)[O-])cc(c23)C(=O)N1CCCNCCNCCCN1C(=O)c2cc([N+](=O)[O-])cc3cc([N+](=O)[O-])cc(c23)C1=O | 1.34 µM (inactive) | 0.337 µM (active) | 0.182 µM (active) | 0.0301 µM (active) | 0.587 µM (active) | 0.0317 µM (active) | 0.233 µM (active) | 0.287 µM (active) | 0.0366 µM (active) | 0.302 µM (active) | 0.124 µM (active) | 0.0695 µM (active) | < 0.0114 µM (active) | 0.0222 µM (active) | < 0.015 µM (active) | 0.0462 µM (active) | 0.178 µM (active) | 0.0897 µM (active) | 0.975 µM (active) | 
CC(/C=C/c1ccc([N+](=O)[O-])o1)=N/N1CC(CN2CCOCC2)OC1=O (stereo not drawn) | 30.2 µM (inactive) | 13.6 µM (inactive) | 19.4 µM (inactive) |  | 16.5 µM (inactive) |  | 17.3 µM (inactive) | 14.7 µM (inactive) | 25.4 µM (inactive) | 17.3 µM (inactive) | 16.9 µM (inactive) | 13.1 µM (inactive) | 9.64 µM (inactive) | 17.7 µM (inactive) | 0.771 µM (active) | 86.1 µM (inactive) | 14 µM (inactive) | 16.1 µM (inactive) | 18.7 µM (inactive) | 15.6 µM (inactive)
O=C(CCCc1ccccn1)c1ccccc1 | > 100 µM (inactive) | > 100 µM (inactive) | > 100 µM (inactive) | > 100 µM (inactive) | > 100 µM (inactive) | > 100 µM (inactive) | > 100 µM (inactive) | > 100 µM (inactive) | > 100 µM (inactive) | > 100 µM (inactive) | > 100 µM (inactive) | > 100 µM (inactive) | > 100 µM (inactive) | > 100 µM (inactive) | > 100 µM (inactive) | > 100 µM (inactive) | > 100 µM (inactive) | > 100 µM (inactive) | > 100 µM (inactive) | 
NCc1ccc(-c2ccc(CN)s2)s1 | 13.1 µM (inactive) | > 100 µM (inactive) | > 100 µM (inactive) | 10.9 µM (inactive) | 69.8 µM (inactive) | > 100 µM (inactive) | > 100 µM (inactive) | > 100 µM (inactive) | > 100 µM (inactive) | 14.6 µM (inactive) | > 100 µM (inactive) | 44 µM (inactive) | > 100 µM (inactive) |  | > 100 µM (inactive) | > 100 µM (inactive) | > 100 µM (inactive) | 42.3 µM (inactive) | > 100 µM (inactive) | 
Cc1cn(CC(=S)NCCc2c[nH]c3ccccc23)c(=O)[nH]c1=O | 99.1 µM (inactive) | > 100 µM (inactive) |  | > 100 µM (inactive) | 34.5 µM (inactive) | > 100 µM (inactive) | > 100 µM (inactive) | 35.5 µM (inactive) | > 100 µM (inactive) | 70 µM (inactive) | > 100 µM (inactive) | 63.7 µM (inactive) | 46.5 µM (inactive) | > 100 µM (inactive) | 44.3 µM (inactive) |  | 48.8 µM (inactive) | > 100 µM (inactive) | 74.5 µM (inactive) | 28.1 µM (inactive)
Cc1ccc(-n2c(O)c(C#N)c3[nH]nc(N)c3c2=O)cc1 | > 100 µM (inactive) |  | > 100 µM (inactive) | > 100 µM (inactive) | > 100 µM (inactive) | > 100 µM (inactive) | > 100 µM (inactive) | > 100 µM (inactive) | > 100 µM (inactive) | > 100 µM (inactive) | > 100 µM (inactive) | > 100 µM (inactive) | > 100 µM (inactive) | > 100 µM (inactive) | > 100 µM (inactive) |  | > 100 µM (inactive) | > 100 µM (inactive) | > 100 µM (inactive) | > 100 µM (inactive)
CSc1ccc(/C=C2\N=C(c3ccccc3)N(NC(=O)c3c(Cl)c(Cl)c(Cl)c(Cl)c3-c3nc4ccccc4[nH]3)C2=O)cc1 | 25.1 µM (inactive) | 17.5 µM (inactive) | 21.7 µM (inactive) | 1.79 µM (inactive) | 2.03 µM (inactive) |  | 30.8 µM (inactive) | 21.7 µM (inactive) | 31 µM (inactive) | 19.2 µM (inactive) | 34.9 µM (inactive) | 19.5 µM (inactive) |  | 36.9 µM (inactive) | 25.9 µM (inactive) | 4.49 µM (inactive) |  | 26.6 µM (inactive) | 3.27 µM (inactive) | 2.22 µM (inactive)
CCNCC(O)c1ccc(N)c([N+](=O)[O-])c1 (stereo not drawn) | > 100 µM (inactive) |  | > 100 µM (inactive) | > 100 µM (inactive) | > 100 µM (inactive) |  | > 100 µM (inactive) | > 100 µM (inactive) | > 100 µM (inactive) | > 100 µM (inactive) | > 100 µM (inactive) | > 100 µM (inactive) | > 100 µM (inactive) | > 100 µM (inactive) | > 100 µM (inactive) | > 100 µM (inactive) | 21.4 µM (inactive) | > 100 µM (inactive) | > 100 µM (inactive) | > 100 µM (inactive)
O=S(=O)(c1ccccc1)C1(CCC2OCCO2)C=CC2(CC1)OCCO2 (stereo not drawn) | > 100 µM (inactive) | > 100 µM (inactive) |  | > 100 µM (inactive) | > 100 µM (inactive) |  | > 100 µM (inactive) | > 100 µM (inactive) | > 100 µM (inactive) | > 100 µM (inactive) |  | > 100 µM (inactive) | > 100 µM (inactive) | > 100 µM (inactive) | > 100 µM (inactive) | > 100 µM (inactive) | > 100 µM (inactive) | > 100 µM (inactive) | > 100 µM (inactive) | > 100 µM (inactive)
O=C(c1cscc1CCc1ccccc1)c1cscc1CCc1ccccc1 | > 100 µM (inactive) |  | > 100 µM (inactive) | 31.6 µM (inactive) | 11.6 µM (inactive) | > 100 µM (inactive) | > 100 µM (inactive) | > 100 µM (inactive) | > 100 µM (inactive) | > 100 µM (inactive) | > 100 µM (inactive) | > 100 µM (inactive) | > 100 µM (inactive) | > 100 µM (inactive) | > 100 µM (inactive) | > 100 µM (inactive) | > 100 µM (inactive) |  | > 100 µM (inactive) | 80 µM (inactive)
CC(Nc1cccc(Cl)c1)c1ccncc1 (stereo not drawn) | 51.3 µM (inactive) | 73.1 µM (inactive) | 40.7 µM (inactive) | > 100 µM (inactive) | 27.4 µM (inactive) | 42.8 µM (inactive) | > 100 µM (inactive) | 31.6 µM (inactive) | > 100 µM (inactive) |  | > 100 µM (inactive) | > 100 µM (inactive) | 75.2 µM (inactive) | > 100 µM (inactive) | > 100 µM (inactive) | > 100 µM (inactive) | > 100 µM (inactive) | 49.4 µM (inactive) | 56.2 µM (inactive) | 
